pIC50: −log10 of the molar value. Calls of active or inactive are those of the source.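 Rule for the calls: active = mean IC50 for reducing PEG3 promoter reporter signal at or below a set limit, with IC50 above the limit in both counter screens; inactive = the rest, including counter screen hits.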
Columns and labels:
Rat fibroblasts (CREF) = test: inhibition of PEG-3 promoter-driven reporter – cell-based, HeLa, luciferase, CREF/GAPDH counter-screen panel, dose response (AID 624167); conditions: CREF/GAPDH counter-screens
PEG-3 [1] = test: as above; conditions: HeLa PEG-Prom luciferase reporter, overnight, CREF/GAPDH counter-screens
GAPDH = test: as above; conditions: CREF/GAPDH counter-screens
[2] = as above; conditions: CREF/GAPDH counter-screens; GAPDH; mean of runs
PEG-3 [3] = target: PEG-3 (UniProt Q6IN02); test: as above; conditions: HeLa PEG-Prom luciferase reporter, overnight, CREF/GAPDH counter-screens, mean of runs
[4] = run 1, dose range 1, individual replicate IC50 per panel
[5] = run 2, dose range 1, individual replicate IC50 per panel

Chain of PEG-3 (UniProt Q6IN02) (Q6IN02 whole entry, looked up): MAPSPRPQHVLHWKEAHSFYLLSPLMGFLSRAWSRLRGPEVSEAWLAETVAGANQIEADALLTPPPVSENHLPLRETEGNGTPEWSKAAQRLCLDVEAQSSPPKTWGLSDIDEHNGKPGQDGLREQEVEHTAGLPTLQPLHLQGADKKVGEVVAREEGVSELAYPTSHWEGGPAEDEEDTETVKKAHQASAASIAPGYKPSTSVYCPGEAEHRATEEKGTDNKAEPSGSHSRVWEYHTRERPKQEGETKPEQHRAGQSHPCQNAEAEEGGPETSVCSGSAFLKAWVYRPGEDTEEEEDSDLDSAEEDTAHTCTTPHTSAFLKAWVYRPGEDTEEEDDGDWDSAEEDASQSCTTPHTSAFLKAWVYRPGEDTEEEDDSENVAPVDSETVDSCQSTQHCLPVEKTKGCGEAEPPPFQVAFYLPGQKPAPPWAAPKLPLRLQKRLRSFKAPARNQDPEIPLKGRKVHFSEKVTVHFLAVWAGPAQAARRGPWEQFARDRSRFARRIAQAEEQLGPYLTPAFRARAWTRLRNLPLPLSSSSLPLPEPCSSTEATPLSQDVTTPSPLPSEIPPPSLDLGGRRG

Row | Compound | IC50 [2] | pIC50 (PEG-3 [3]) | pIC50 [2] | IC50 (PEG-3 [3]) | pIC50 (Rat fibroblasts (CREF); mean of runs) | pIC50 (Rat fibroblasts (CREF); [4]) | pIC50 (Rat fibroblasts (CREF); [5]) | pIC50 (PEG-3 [1]; [4]) | pIC50 (PEG-3 [1]; [5]) | pIC50 (GAPDH; [4]) | pIC50 (GAPDH; [5]) | IC50 (Rat fibroblasts (CREF); mean of runs)
1 | CCCC(=O)NC(c1ccc(C)cc1)c1ccc2cccnc2c1O (centres undefined) | inactive | 5.23 |  |  |  | < 4.00 | < 4.00 | 5.33 | 5.14 | < 4.00 | 4.13 | > 100 µM (inactive)
2 | O=C(c1ccco1)N1CCN(C(c2ccccc2Cl)c2nnnn2Cc2cccs2)CC1 (centres undefined) | inactive |  |  | inactive |  | < 4.00 | < 4.00 | 5.48 | < 4.00 | 4.84 | 4.23 | > 100 µM (inactive)
3 | CCCCCCN1C=C/C(=C\C=C(C#N)C#N)c2ccccc21 | inactive | 4.99 |  |  |  | < 4.00 | 4.97 | 4.87 | 5.15 | 5.91 | < 4.00 | 55.3 µM (inactive)
4 | Clc1ccccc1/C=C/c1nc(-c2ccccn2)no1 |  |  | 5.73 | inactive | 4.55 | 4.59 | 4.52 | 5.43 | < 4.00 | 5.46 | > 6.70 | 
5 | CCCCC(=O)NC(c1ccccc1OC)c1ccc2cccnc2c1O (centres undefined) | inactive | 4.97 |  |  |  | < 4.00 | < 4.00 | 5.48 | 4.75 | 4.44 | < 4.00 | > 100 µM (inactive)
6 | CS(=O)(=O)c1ccc(-c2cn3cc(C(=O)O)ccc3n2)cc1 |  | 4.99 | 4.56 |  | 4.37 | 4.37 | 4.36 | 5.16 | 4.87 | 4.61 | 4.52 | 
7 | Cc1ccccc1CNC(=O)C1CCCN(c2nnc(C)c3c(C)n(-c4ccccc4)nc23)C1 (centres undefined) | inactive | 4.98 |  |  | 4.70 | 4.62 | 4.81 | 4.83 | 5.21 | 4.38 | 4.60 | 
8 | Cc1ccc(OCC(=O)c2cc(C)n(Cc3ccco3)c2C)c([N+](=O)[O-])n1 |  | 5.17 | 4.89 |  |  | < 4.00 | < 4.00 | 5.19 | 5.15 | 5.14 | 4.73 | > 100 µM (inactive)
9 | O=C(O)c1ccc(N/N=C/c2ccc(OC(=O)c3cccc(Cl)c3)cc2)cc1 |  | 5.02 | 5.49 |  |  | < 4.00 | < 4.00 | 5.20 | 4.89 | 6.26 | 5.23 | > 100 µM (inactive)
10 | CCC(c1ccc(O)c(O)c1)C(CC)c1ccc(O)c(O)c1 (centres undefined) | inactive | 5.00 |  |  | 4.70 | 4.64 | 4.78 | 4.85 | 5.25 | 4.45 | 4.47 | 
11 | C=Cc1cc(OC)c2c(c1)c(=O)oc1c2cc(OC)c2c(O)ccc(C3OC(C)C(O)C(C)(O)C3O)c21 (centres undefined) | inactive | 5.59 |  |  |  | < 4.00 | < 4.00 | 5.66 | 5.53 | < 4.00 | 4.19 | > 100 µM (inactive)
12 | CCCCC(=O)NC(c1ccc(OC)cc1)c1ccc2cccnc2c1O (centres undefined) | > 100 µM (inactive) | 5.10 |  |  |  | < 4.00 | < 4.00 | 5.09 | 5.10 | < 4.00 | < 4.00 | > 100 µM (inactive)
13 | COc1cc(Nc2c3ccccc3nc3ccccc23)cc(OC)c1OC | inactive | 5.09 |  |  | 4.44 | 4.57 | 4.34 | 5.05 | 5.14 | 4.48 | 4.46 | 
14 | CN=c1sc2c(n1C)C(=O)c1ccccc1C2=O | inactive | 5.00 |  |  | 5.30 | 5.30 | 5.30 | 5.02 | 4.99 | 4.53 | 4.31 | 
15 | COc1ccc(-n2cc(-c3ccccc3)c3c(N4CCOCC4)ncnc32)cc1 |  | 4.99 | 4.67 |  |  | 4.17 | 4.15 | 4.92 | 5.07 | 4.67 | 4.67 | 68.5 µM (inactive)
16 | O=C(CNc1ccccc1)N/N=C/c1c(O)ccc2ccccc12 | > 100 µM (inactive) |  |  | inactive |  | 4.24 | 4.35 | 5.46 | < 4.00 | < 4.00 | < 4.00 | 51.1 µM (inactive)
17 | CCOC(=O)c1c(SCCN2CCCCC2)n(-c2ccccc2)c(=S)n(-c2ccccc2)c1=O |  | 5.14 | 4.73 |  | 4.87 | 4.89 | 4.84 | 4.99 | 5.36 | 4.73 | 4.73 | 

The remaining compounds from weak to strong by pIC50 (PEG-3 [3]), led by results:

Row | IC50 [2] | pIC50 (PEG-3 [3]) | pIC50 [2] | IC50 (PEG-3 [3]) | Compound | pIC50 (Rat fibroblasts (CREF); mean of runs) | pIC50 (Rat fibroblasts (CREF); [4]) | pIC50 (Rat fibroblasts (CREF); [5]) | pIC50 (PEG-3 [1]; [4]) | pIC50 (PEG-3 [1]; [5]) | pIC50 (GAPDH; [4]) | pIC50 (GAPDH; [5]) | IC50 (Rat fibroblasts (CREF); mean of runs)
18 |  | 5.26 | 4.84 |  | CCSc1nc2ccccc2n1C(=O)/C=C\c1ccc(OC)c(OC)c1 |  | 4.34 | < 4.00 | 5.31 | 5.22 | 4.85 | 4.82 | 72.8 µM (inactive)
19 | > 100 µM (inactive) | 5.33 |  |  | COc1ccc(C(NC(=O)C(C)C)c2ccc3cccnc3c2O)cc1 (centres undefined) | 4.63 | 4.91 | 4.46 | 5.43 | 5.25 | < 4.00 | < 4.00 | 
20 |  | 5.37 | 5.08 |  | CN(C)c1ccc(C=c2c3ccccc3n3c2cc(-c2ccccc2)[n+]3C)cc1 | 4.53 | 4.56 | 4.50 | 5.15 | 5.81 | 5.03 | 5.14 | 
21 | > 100 µM (inactive) | 5.37 |  |  | O=C(CCSc1nc2ccccc2s1)N/N=C/c1c(O)ccc2ccccc12 |  | < 4.00 | < 4.00 | 5.23 | 5.57 | < 4.00 | < 4.00 | > 100 µM (inactive)
22 | > 100 µM (inactive) | 5.37 |  |  | C=CCn1c(COc2ccccc2)nnc1SC(C)C(=O)N/N=C/c1cc(Cl)ccc1O (centres undefined) |  | < 4.00 | < 4.00 | 5.29 | 5.46 | < 4.00 | < 4.00 | > 100 µM (inactive)
23 | > 100 µM (inactive) | 5.44 |  |  | O=C(NNC(=O)c1cccnc1SCc1cccc([N+](=O)[O-])c1)c1ccccn1 | 4.50 | 5.25 | 4.24 | 5.56 | 5.35 | < 4.00 | < 4.00 | 
24 |  | 5.52 | 5.55 |  | CCC(C)Cn1c(O)cc2nn(-c3nc4ccccc4s3)c(=O)c-2c1C (centres undefined) |  | 4.14 | 4.23 | 5.24 | > 6.70 | 5.51 | 5.60 | 65.6 µM (inactive)
25 | > 100 µM (inactive) | 5.54 |  |  | COc1cc(C(=O)N/N=C(\c2ccccc2)c2ccccn2)cc(OC)c1OC |  | 4.35 | 4.14 | 5.51 | 5.57 | < 4.00 | < 4.00 | 58.4 µM (inactive)
26 | > 100 µM (inactive) | 5.61 |  |  | CCCC(=O)NC(c1ccccc1)c1ccc2cccnc2c1O (centres undefined) | 4.88 | 6.23 | 4.59 | 5.52 | 5.72 | < 4.00 | < 4.00 | 
27 |  | 5.74 | > 6.70 |  | CC(C)CCCCCCCCCCCCC(=O)NCC(=O)NC1C(O)C(O)C(Nc2ncnc3nc[nH]c23)OC1C(O)CO (centres undefined) |  | > 6.70 | < 4.00 | 5.46 | > 6.70 | > 6.70 | > 6.70 | 50.1 µM (inactive)
28 |  | 5.81 | 5.69 |  | O=C(O)c1ccc(N/N=C/c2ccc3c(c2)OCO3)cc1 |  | 4.24 | 4.33 | 5.91 | 5.72 | 5.86 | 5.57 | 52.3 µM (inactive)
29 |  | 5.92 | 5.34 |  | CCc1ccc(/C=C2\SC(=S)N(CCCC(=O)NC3=NCCS3)C2=O)cc1 |  | < 4.00 | < 4.00 | 5.89 | 5.94 | 5.34 | 5.35 | > 100 µM (inactive)
30 |  | 5.94 | 6.00 |  | CC1CC(C)C(=O)C(C(CC2CC(=O)NC(=O)C2)OC(=O)CC(=O)c2ccccc2)C1 (centres undefined) |  | < 4.00 | < 4.00 | 5.75 | 6.26 | 6.22 | 5.85 | > 100 µM (inactive)
31 |  | 6.02 | 5.30 |  | Cc1ccc(/C=C2\SC(=S)N(CCCC(=O)NNC(=O)c3ccccc3O)C2=O)cc1 |  | < 4.00 | < 4.00 | 5.77 | > 6.70 | 5.58 | 5.13 | > 100 µM (inactive)
